Results from patent US4965250A, “Peptide compounds having a nitrogenous polycyclic structure” (Adir ET CIE, priority 1987, dated 1990).

Test system: polynuclear leukocytes present in the whole blood of dogs
Type: cell-based
Protocol: The compounds according to the invention were tested for their capacity to increase non-specific phagocytosis. This test consists in measuring, after treatment by flow cytometry, the capacity of the polynuclear leukocytes present in the whole blood of dogs to phagocytose latex beads 1.8 μm in diameter, on the one hand in the absence (control) and on the other hand in the presence of a compound of the invention.

SMILES: C[C@H]1OC(=O)N[C@@H]1C(=O)N[C@@H](CCCCN)C(=O)N1C2CCC(CC2)[C@H]1C(=O)N[C@@H](CCCNC(=N)N)C(=O)O [Example 1, Cyclo(S)Thr-(S)Lys-(S)ABO-(S)Arg-OH]
- increase relative to the control of the capacity of the polynuclear leukocytes for non-specific phagocytosis: 19%
